Data from patent publication US20110195845A1, “Constructs for Expressing Herbicide Tolerance Genes, Related Plants, and Related Trait Combinations” (Dow AgroSciences LLC, priority 2008, published 2011).

Assays:
[1] = test system: Arabidopsis seed (wildtype, PAT, DSM-2 (v2)); test: DSM-2 (v2) as selectable marker: survival of sown seed after glufosinate spray; assay type: in vivo, Arabidopsis thaliana
Experimental: The ability to use DSM-2 (v2) as a selectable marker using glufosinate as the selection agent was analyzed with Arabidopsis transformed as described above. Approximately 100 T1 generation Arabidopsis seed (100-150 seeds) containing for DSM-2 (v2) or 2 mg homozygous T5 plants containing PAT were spiked into approximately 10,000 wildtype (sensitive) seed. Each tray of plants received two application timings of 280 g ai/ha glufosinate at the following treatment times: 7 DAP and 11 DAP. Treatments were applied with a DeVilbiss spray tip as previously described. Another 2 mg T1 generation Arabidopsis seed from each was sown and not sprayed as a comparison count. Plants were identified as Resistant or Sensitive 17 DAP.

[2] = test system: Escherichia coli BL21-Star (DE3) with CsVMV promoter//DSM-2 (3264); test: Viral promoter driven complementation on glufosinate, plasmid 3264; assay type: cell-based; conditions: for bacterial growth on minimal media: 48 hrs @37 C; for bacterial growth on minimal media: key: ++++ = Heavy Lawn Growth; +++ = Lawn Growth; ++ = Lots of Distinct Colonies; + = Scattered Colony Growth
Experimental: (§1) Plasmid constructs in which the DSM-2 (v2) and PAT gene coding sequences were expressed, under either the viral promoters CsVMV or the plant promoter AtUbi10, were assayed for complementation on minimal media containing glufosinate. The plasmids 3778 (Rb7 MARv3//AtUbi10 promoter//DSM-2 (v2)//Atu Orf 1 3′UTR), 3779 (Rb7 MARv3//AtUbi10 promoter//PAT//Atu Orf 1 3′UTR), 3264 (CsVMV promoter//DSM-2//Atu Orf 24 3′UTR), 3037 (CsVMV promoter//PAT//Atu Orf 25/26 3′UTR), and 770 (control plasmid containing CsVMV promoter//GUS v3//Atu Orf 24 3′UTR) were transformed into Escherichia coli BL21-Star (DE3) and grown up in complex media. Five microliters of the cultures were plated on minimal media containing increasing concentrations of Glufosinate and incubated at 37° C. for 48 hours.

[3] = test system: T0 DSM-2 (v2)-transformed corn plants; test: Leaf paint with glufosinate in T0 corn; assay type: in vivo; conditions: for % Injury: 2 WAT
Experimental: T0 DSM-2 (v2) plants were painted with a rundown of glufosinate herbicide. Four siblings from each of 15 T0 events were tested, and 4 leaves on each individual plant received a rundown of glufosinate at approximately V8 stage. Rundown treatments were randomized for each rate allowing for variation of treatment location on individual leaves. For corn, 0.25% v/v glufosinate is the minimum effective dose to distinguish sensitive plants from ones with meaningful levels of resistance. Elevated rates were also applied to determine relative levels of resistance (0.5%, 1.0%, and 2.0% v/v). Glufosinate treatments were applied using cotton tipped applicators to a treatment area of approximately 2.5 cm in diameter.
Table 11 compares the response of DSM-2 (v2) and control genes to impart glufosinate resistance to corn T0 transformants. Response is presented in terms of % visual injury 2 WAT. […] Since each T0 is an independent transformation event, one can expect significant variation of individual T0 responses within a given rate. An arithmetic mean and standard deviation is presented for each treatment. Untransformed wildtype corn served as a glufosinate sensitive control. The DSM-2 (v2) gene imparted herbicide resistance to individual T0 corn plants. Within a given treatment, the level of plant response varied greatly and can be attributed to the fact each plant represents an independent transformation event.

[4] = test system: Escherichia coli BL21-Star (DE3) with AtUbi10 promoter//DSM-2 (v2) (3778); test: Plant promoter driven complementation on glufosinate, plasmid 3778; assay type: cell-based; set-up: bacterial growth on minimal media: key: ++++ = Heavy Lawn Growth; +++ = Lawn Growth; ++ = Lots of Distinct Colonies; + = Scattered Colony Growth; conditions: for bacterial growth on minimal media: 48 hrs @37 C
Experimental: as §1

PAT (pDAS1942) corn = test: T2 corn response to glufosinate applied postemergence; assay type: in vivo; conditions: 14DAT
E. coli DH5α = test: Bacterial strain response to glufosinate on minimal media; assay type: cell-based, Escherichia coli; set-up: key: +++ = Heavy Lawn Growth; ++ = Light lawn growth; + = patchy lawn growth; −− = No Growth; conditions: 24 hrs @ 37 C
Experimental: (§2) Selected cell lines of Escherichia coli and Agrobacterium tumefaciens were inoculated on minimal media containing incrementally increasing concentrations of Glufosinate (BASTA). The cell lines; BL21-Star (DE3), Top10, DH5α, Agrobacterium tumefaciens C58, and Agrobacterium tumefaciens LBA4404s were initially grown up on complex media. The Escherichia coli strains were grown in LB and the Agrobacterium tumefaciens strains were grown in YEP. Five microliters of bacterial culture was inoculated and dispersed evenly onto minimal media plates containing various concentrations of glufosinate. The concentrations consisted of 0 μg/ml, 250 μg/ml, 500 μg/ml, 1000 μg/ml, 2000 μg/ml, and 4000 μg/ml of BASTA. In addition, the bacterial strains were inoculated onto a plate of complex media as a control—Agrobacterium tumefaciens strains were inoculated on YEP agar plates, and Escherichia coli strains were inoculated on LB agar plates. The plates containing the Escherichia coli strains were incubated at 37° C. for 24 hours. The plates containing the Agrobacterium tumefaciens strains were incubate at 25° C. for 48 hours. […] Table 7 illustrates the capability of the various strains to grow on minimal media containing glufosinate.

E. coli Top10 = test: as above; assay type: cell-based, Escherichia coli; set-up: key: +++ = Heavy Lawn Growth; ++ = Light lawn growth; + = patchy lawn growth; −− = No Growth; conditions: 24 hrs @ 37 C
Experimental: as §2

[5] = 560 g ai/ha glufosinate postemergence
[6] = 2240 g ai/ha glufosinate postemergence

## CP(=O)(O)CCC(N)C(=O)O (stereo not shown) [glufosinate]
[1]; 280 g ai/ha glufosinate 7 DAP and 11 DAP, Trt 1: 200 mg WT planted
  Number of Surviving Plants Following glufosinate Spray: 0
[1]; 280 g ai/ha glufosinate, Trt 2: 2 mg PAT planted
  Number of Surviving Plants Following glufosinate Spray: 154
[1]; 280 g ai/ha glufosinate, Trt 3: 200 mg WT + 2 mg PAT planted
  Number of Surviving Plants Following glufosinate Spray: 121
[1]; 280 g ai/ha glufosinate, Trt 4: 2 mg DSM-2 (v2) planted
  Number of Surviving Plants Following glufosinate Spray: 117
[1]; 280 g ai/ha glufosinate, Trt 5: 200 mg WT + 2 mg DSM-2 (v2) planted
  Number of Surviving Plants Following glufosinate Spray: 121
[2]; 250 μg/ml BASTA
  bacterial growth on minimal media: ++
[2]; 500 μg/ml BASTA
  bacterial growth on minimal media: +
[2]; CsVMV promoter, minimal media
  concentration in minimal media to which promoter-driven DSM-2 provided resistance: 200 µg/mL
[3]; 0.25% v/v glufosinate leaf paint
  % Injury: 0%
[3]; 0.5% v/v glufosinate leaf paint
  % Injury: 1%
[3]; 1% v/v glufosinate leaf paint
  % Injury: 2%
[3]; 2% v/v glufosinate leaf paint
  % Injury: 4%
[3]; up to 2% v/v glufosinate
  performance compared to PAT-transformed plants: performs better overall than PAT-transformed plants
[4]; 250 μg/ml BASTA
  bacterial growth on minimal media: ++++
[4]; 500 μg/ml BASTA
  bacterial growth on minimal media: +++
[4]; 1000 μg/ml BASTA
  bacterial growth on minimal media: +++
[4]; 2000 μg/ml BASTA
  bacterial growth on minimal media: ++
[4]; 4000 μg/ml BASTA
  bacterial growth on minimal media: ++
[4]; At Ubi10 promoter, minimal media
  concentration in minimal media to which promoter-driven DSM-2 provided resistance: 200 µg/mL
PAT (pDAS1942) corn; [5]
  % Injury Ave: 6%
  individuals with % Injury <20%: 4
PAT (pDAS1942) corn; 1120 g ai/ha glufosinate postemergence
  individuals with % Injury >40%: 3
PAT (pDAS1942) corn; [6]
  % Injury Ave: 25%
  individuals with % Injury 20-40%: 1
  individuals with % Injury <20%: 2
  individuals with % Injury >40%: 1
PAT (pDAS1942) corn; 4480 g ai/ha glufosinate postemergence
  individuals with % Injury <20%: 0
E. coli DH5α; 250 μg/ml BASTA
  bacterial growth on minimal media: +++
E. coli DH5α; 500 μg/ml BASTA
  bacterial growth on minimal media: +++
E. coli DH5α; 1000 μg/ml BASTA
  bacterial growth on minimal media: +++
E. coli DH5α; 2000 μg/ml BASTA
  bacterial growth on minimal media: +++
E. coli DH5α; 4000 μg/ml BASTA
  bacterial growth on minimal media: −−
E. coli Top10; 250 μg/ml BASTA
  bacterial growth on minimal media: +++
E. coli Top10; 500 μg/ml BASTA
  bacterial growth on minimal media: +++
E. coli Top10; 1000 μg/ml BASTA
  bacterial growth on minimal media: +++
E. coli Top10; 2000 μg/ml BASTA
  bacterial growth on minimal media: +
E. coli Top10; 4000 μg/ml BASTA
  bacterial growth on minimal media: −−
